Assay: gradient 5% acetonitrile 3 min, to 50% in 2 min, to 85% in 15 min, held 3 min, 100 µL/min
Conditions: column: Zorbax Extend-C18 2.1 x 50 mm; eluents: water / acetonitrile, 0.1% formic acid
How it was run: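 Using water and acetonitrile that each contained 0.1% formic acid, mixtures of ~100 pure standards were separated at 100 μL/min on a Zorbax Extend-C18 column (2.1 × 50 mm, 1.8 μm). The HPLC fed a quadrupole time-of-flight mass spectrometer working in positive and negative ionization mode, with dead and dwell volumes of 40 μL and 900 μL. Data were acquired over 3 months. Retention time was read from computationally picked adduct peaks after manual inspection of each.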

SMILES | RP-LC retention time [s]
CCCCNC(=O)CSc1cc(N2CCC(C(=O)NC3CC3)CC2)ncn1 | 615
Cc1noc(-c2cccc(OC3CN(C(=O)NC(C)C)C3)c2)n1 | 760
c1ccc(-c2nc(-c3ccccn3)nc(-c3ccccn3)n2)nc1 | 644
C[C@H]1C[C@H]2[C@@H]3CCC4=CC(=O)C=C[C@]4(C)[C@H]3C(=O)C[C@]2(C)[C@@]1(O)C(=O)CO | 775
O=C(Nc1ccc(Br)cc1)C1CCCN1S(=O)(=O)c1ccc(F)cc1 (centres undefined) | 967
COc1ccc2[nH]cc(CCNC(=O)CC3CCN(C(=O)C4CCCCC4)CC3)c2c1 | 757
CCCn1c(=O)sc2cc(S(=O)(=O)N3CCC(C(=O)N(C)Cc4ccco4)CC3)ccc21 | 901
CCCCNc1c(C(=O)OC)c(=O)[nH]c2ccc(F)cc12 | 734
FC(F)(F)c1ccccc1-n1ccnc1 | 633
CN(C)C(=O)c1ccc2c(c1)N(CC(=O)NCCCN1CCCC1=O)C(=O)C1CCCCN21 (centres undefined) | 619
O=C(NCCc1cccs1)C1CCN(S(=O)(=O)c2ccc(-c3noc(C4CC4)n3)cc2)CC1 | 946
Cc1cc(C(=O)Nc2ccc3nc(N4CCN(C)CC4)sc3c2)on1 | 544
O=C(CCC1CCN(S(=O)(=O)c2ccccc2F)CC1)NC1CCS(=O)(=O)C1 (centres undefined) | 685
Cn1c(=O)c2c(C(=O)N3CCN(c4cccc(C(F)(F)F)c4)CC3)cc(=O)n(C)c2n(C)c1=O | 943
Cc1ccnc(N2CCCC(C(=O)NCC3CCN(Cc4ccc(Cl)cc4)CC3)C2)n1 (centres undefined) | 624
CCOc1ccccc1NC(=O)Cn1cnc2nc(N3CCCC(C(=O)NC(C)C)C3)sc2c1=O (centres undefined) | 743
O=C(NC1CCCCC1)C1CCc2ncc(-c3ccsc3)n2C1 (centres undefined) | 584
COc1ccc(NC(=O)N2CCN(CCn3c(C(F)(F)F)nc4cccnc43)CC2)cc1OC | 611
CCN1C(=O)c2cccnc2Sc2cc(NC(=O)C3CCCCC3)ccc21 | 877
CCOC(=O)CCc1c(C)nn(-c2cc(N(C)C)ncn2)c1C | 834
O=C1COc2cc(S(=O)(=O)N3CCCC3C(=O)NCCN3CCCC3)c(Cl)cc2N1 (centres undefined) | 567
COc1ccc(C(=O)N(Cc2cc(OC)c(OC)c(OC)c2)C2CCS(=O)(=O)C2)cc1 (centres undefined) | 749
CS(=O)(=O)N1CCCc2cc(C(=O)Nc3ccc(Br)cc3F)ccc21 | 951
COC(=O)c1ccc2c(=O)n(-c3cccc(Cl)c3)c(N3CCSCC3)nc2c1 | 1090
CCNc1cc(N2CCCC(CCC(=O)NC(CC)CC)C2)ncn1 (centres undefined) | 658
Cc1csc(-c2cc(S(=O)(=O)NC3CCCC3)c(C)n2C)n1 | 970

SMILES | RP-LC retention time [s]
c1nc2ccc(-c3nc(-c4ccc5c(c4)nnn5CCN4CCCCC4)no3)cc2[nH]1 | 570
Cc1oc(-c2[nH]ncc2C(=O)N2CCOCC2)cc1S(=O)(=O)N1CCOCC1 | 595
CCOC(=O)c1[nH]c(C)c(C(=O)N2CCC(CC(=O)NC3CCCCC3)CC2)c1C | 719
COc1ccc(NC(=O)N2CCC(n3cnc4cccnc43)CC2)cc1 | 617
O=C(CC1CCCC1)N1CCCC(c2nn[nH]n2)C1 (centres undefined) | 660
Cc1cc(C)n(CC(=O)N2CCCCCC2c2nnc(C)o2)n1 (centres undefined) | 631
O=C(c1ccn[nH]1)N1CCC[C@H]1c1nc(C2CCOCC2)n[nH]1 | 558
Cc1cc2c(cc1NC(=O)c1ccco1)n(C)c(=O)n2C | 635
CC1=C(c2ccc(C)c(C)c2)S(=O)(=O)N=C1N1CCCN(C(=O)CC2CCCC2)CC1 | 967
NC(=O)C1CCN(C(=O)CN2CCN(c3ccccc3)CC2)CC1 | 582
COCc1cn(C2CN(C(=O)c3ccc(OC)cc3OC)C2)nn1 | 622
N#Cc1cccc(-c2cn3c(n2)N(C(=O)c2ccoc2)CCC3)c1 | 644
CC(C)CN1CCCC(COc2ccccc2C(=O)NC2CC2)C1 (centres undefined) | 606
O=C(CSc1ccc(N2CCCC(C(=O)NC3CC3)C2)nn1)Nc1ccc(F)cc1Cl (centres undefined) | 675
CC1=C(c2ccccc2)S(=O)(=O)N=C1N1CCCN(C(=O)NCC(C)C)CC1 | 768
O=C(NCc1ccco1)C1CCN(S(=O)(=O)c2cc(C(=O)N3CCCCCC3)cs2)CC1 | 815
COc1ccccc1C(=O)N1CCCC1c1c(C)noc1C (centres undefined) | 693
Cc1nc(-c2ccncc2)nc2c1CCC(=O)N2Cc1cccs1 | 723
CSc1cccc(NC(=O)NC2CCN(c3ccc(F)c(C)c3)C2=O)c1 (centres undefined) | 867
Cn1c(C2CCN(C(=O)Nc3cc(F)cc(F)c3)CC2)cc(=O)n2nccc12 | 695
O=C(Cc1ccsc1)N1CCC2(CC1)CC(N1CCCCC1)CCO2 (centres undefined) | 590
CN(C)CC(=O)N1CCC(Oc2nccnc2N2CCOCC2)C1 (centres undefined) | 561
COc1ccc(NC(=O)N2CC3CCCN3c3ccccc32)c(OC)c1 (centres undefined) | 1090
O=C(NCc1cccs1)C1CCCN(c2nnc3ccc(C(F)(F)F)cn23)C1 (centres undefined) | 668
COCCCNC(=O)N1CCCC1c1nc(-c2cccc(Cl)c2)no1 (centres undefined) | 853

Next, values leading:

RP-LC retention time [s] | SMILES
1150 | CCOc1ccc(C2Cn3nnc(-c4nc(-c5ccccc5Cl)no4)c3CO2)cc1 (centres undefined)
855 | CC(Cc1ccco1)NC(=O)c1nc(Nc2ccc(F)cc2)c2ccccc2n1 (centres undefined)
945 | COc1cccc(-c2ccnc3nc(Cc4cc(F)cc(F)c4)nn23)c1
898 | COc1ccc(NS(=O)(=O)c2ccc3c(c2)C(=O)N(C)c2ncccc2O3)c(C)c1
1020 | COc1ccc(CNC(=O)c2nnc(-c3ccc(S(=O)(=O)N4CCC(C)CC4)cc3)o2)cc1
1100 | CSc1ccc(-c2noc(Cc3nnc(-c4cc(F)cc(F)c4)o3)n2)cc1
1070 | O=c1ccc(-c2nc(-c3ccc(F)cc3)no2)nn1Cc1ccccc1F
1220 | CCC1Cn2c(C(=O)NCCc3c[nH]c4ccccc34)cc3c(Cl)ccc(c32)O1 (centres undefined)
788 | O=C(Nc1nnc(-c2ccc(Br)cc2)o1)c1ccccc1F
1400 | O=S(=O)(NCCC1=CCCCC1)c1ccccc1-c1nc(-c2cccc(F)c2)no1
781 | CCCCNC(=O)CCCN1C(=O)CCn2nc(-c3cn(C)c4ccccc34)cc21
932 | CCOc1ccc(OCC)c(NS(=O)(=O)c2cc(-c3c(CC)noc3NC(C)=O)ccc2C)c1
724 | O=C(CSc1nnc(-c2cccnc2)o1)c1cccc([N+](=O)[O-])c1
615 | CCc1cccc(C)c1NC(=O)Cn1nc2c3cccc(C)c3ncn2c1=O
845 | Cc1ccc(-c2nnc(Cc3nc(-c4cccnc4)no3)o2)cc1C
701 | O=C(COc1ccccc1F)Nc1nnc(-c2ccsc2)o1
1090 | Cc1cc(-c2cc(S(=O)(=O)N3CCC(Cc4ccccc4)CC3)c(C)s2)n[nH]1
624 | COC(=O)c1ccc2c(=O)n(-c3ccccc3)c(N3CCN(C)CC3)nc2c1
632 | COc1cccc(CNC(=O)c2cn3ccc(C)cc3n2)c1OC

RP-LC retention time [s] | SMILES
936 | COc1ccc(-c2noc(C3CCCN3C(=O)COc3ccccc3)n2)cc1 (centres undefined)
710 | O=C(C(=O)N1CCN(c2cccc(Cl)c2)CC1)c1c[nH]c2ccccc12
1310 | Cc1ccccc1NC(=O)c1cc(C(C)(C)C)n2nccc2n1
758 | NC(=O)c1oc2ccccc2c1NC(=O)C(=O)NCc1ccc2c(c1)OCO2
916 | Brc1cn2c(Nc3ccc4c(c3)OCCO4)c(-c3ccccc3)nc2cn1
1000 | Cc1cc(=O)n(CC(=O)Nc2ccccc2F)c(-c2ccccc2)n1
791 | COc1ccc(NC(=O)Cn2c(=O)n(-c3ccccc3)c(=O)c3c2cc(C)n3C)c(OC)c1
616 | O=C(Cn1c(=O)cc(-c2nc(C3CC3)no2)c2ccccc21)Nc1ccc(F)cc1
819 | CNC(=O)c1cc(-c2ccc(F)cc2)nc2ccccc12
718 | Cc1cccc(CNC(=O)CCc2c(-c3ccc(Br)cc3)nc3ccccn23)c1
685 | COCCCNC(=O)CN1C(=O)CCn2nc(-c3cn(C)c4ccccc34)cc21
847 | CN1C(=O)C(C)(C(=O)Nc2ccc(F)cc2)Oc2cccnc21 (centres undefined)
1240 | O=C(Nc1ccccc1Br)c1c(O)c2cccc3c2n(c1=O)CC3
708 | CC(C)c1noc(-c2cccnc2N2CCCN(Cc3cccc(F)c3)CC2)n1
1090 | Cc1ccc(-c2ccc(=O)n(Cc3nc(-c4ccc(F)cc4)no3)n2)cc1
871 | Cc1nn(CC(=O)NCCC(C)C)c(=O)c2nc(-c3ccccc3)sc12
920 | Cc1cc(-c2nnc(-c3ccc(F)cc3)o2)c(C)n1CC(=O)NCc1ccccc1
1400 | CC(C)(C)c1ccc(-c2cc(C(=O)O)c3ccc(Br)cc3n2)cc1
706 | Cc1c(-c2noc(C(=O)NCCN3CCC(C)CC3)n2)oc2ccccc12
